From paper PMC10067601, “Identification of a peptide ligand for human ALDH3A1 through peptide phage display: Prediction and characterization of protein interaction sites and inhibition of ALDH3A1 enzymatic activity” (Frontiers in Molecular Biosciences, 2023) come the findings set out here.

“Also recorded” adds a separate entry of the source.

The test system of this experiment is human recombinant ALDH3A1 (6-His). Put plainly: Phage display panning, Ph.D.-12 random 12-mer library (3 rounds, clones sequenced). The experiment is classed as binding. The note with it: for Frequency of appearance: clones out of 33 sequenced after third panning round, 75 μg ALDH3A1 coated, Ph.D.-12 library. Here is the method: For phage titration, 50 μL of an overnight E. coli ER2738 (host strain) culture were used for the inoculation of 5 mL Luria Broth (LB) which was subsequently cultivated at 37°C (220 rpm). When E. coli ER2738 culture reached an OD600 value of approximately 0.5, 200 μL of the culture were mixed with 10 μL of the phage solution and the mixture was vortexed and incubated for 5 min at room temperature (RT). Subsequently, it was diluted in 3 mL of warm agarose top (0.7% agarose, 0.5% yeast extract, 1% Bacto-Tryptone, 0.5% NaCl, 0.1% MgCl2•H2O) and poured in LB/IPTG/Xgal agar plates (LB agar plates with 0.004% X-gal 0.005% IPTG). Plates were incubated overnight at 37°C.
The procedure was initiated with the amplification of the phage plaques as described in 2.5 with the exception that after the first centrifugation, 500 μL of the supernatant was transferred into a fresh tube. Then, 200 μL PEG/NaCl were added and the sample was mixed and incubated at RT for 10 min. The sample was subsequently centrifuged at 14,000 rpm, for 10 min at 4°C and the supernatant was removed. After the second round of centrifugation under the same conditions, the remaining supernatant was carefully discarded. Pellet was then re-suspended in 100 μL of iodine buffer (4M NaI, 1 mM EDTA, 10 mM Tris-HCl, pH 8.0) and 250 μL of ethanol were subsequently added. The mixture was incubated at RT for 10 min, centrifuged at 14,000 rpm for 10 min at RT, and the supernatant was discarded. Finally, 70% of pure ethanol was used for DNA wash and the pellet was suspended in 30 μL sterilized ddH2O. Samples were stored at −20°C until needed. Isolated M13 phage ssDNA (∼120 ng) was subjected to agarose gel electrophoresis, and the residual volume of the ssDNA was sent for single extension sequencing from the primer 5′-CCCTCATAGTTAGCGTAACG-3’. Sequencing was conducted by VBC biotech (Vienna, Austria). The resulting sequences were used for the estimation of the respective 12-mer peptides. […]

In the case of “WPTYVSPFRSPP [P1, …, prevailing 12-mer phage display peptide, synthesised by Genecust]”, the Frequency of appearance was 30 out of 33. The Frequency of appearance (listed as WPTYVSPFRSPP) is on record as 30 out of the 33. Moreover, for the setting “inferred from frequency of appearance”, the “Strength of interaction with recombinant hALDH3A1” value is “strongest and most specific interaction with the recombinant hALDH3A1; also recorded: appeared to bind most efficiently to hALDH3A1”.
